Assay results: the supplement of paper PMC10307832

Assays:
Experiment in all cases: relative viability (nuclei count vs DMSO), 5 days (fraction); higher = more cells survive
[1] = compound: CC[C@H](CO)Nc1nc(NCc2ccccc2)c2ncn(C(C)C)c2n1 [Seliciclib] + Cc1cc(Nc2cc(N3CCN(C)CC3)nc(Sc3ccc(NC(=O)C4CC4)cc3)n2)n[nH]1 [Tozasertib] (partner 0.1 µM)
Outline: (§1)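 Five library-drug doses in √10 steps were combined with a fixed anchor-drug dose, or a single drug was given alone, by pin tool to lung cancer cell lines in 1536-well plates the day after seeding. Nuclei were stained and counted after 5 days. Relative viability is the nuclei count in treated wells over that in vehicle wells, taken as the median of duplicate plates.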

[2] = compound: CC[C@H](CO)Nc1nc(NCc2ccccc2)c2ncn(C(C)C)c2n1 [Seliciclib] + COc1cccc2cc(-c3nc([C@H]4CC[C@H](C(=O)O)CC4)n4ncnc(N)c34)[nH]c12 [OSI-027] (partner 0.5 µM)
Outline: as §1

[3] = compound: CC[C@H](CO)Nc1nc(NCc2ccccc2)c2ncn(C(C)C)c2n1 [Seliciclib] + C[C@]1(O)C[C@@H](c2nc(-c3ccc4ccc(-c5ccccc5)nc4c3)c3c(N)nccn32)C1 [Linsitinib] (partner 1 µM)
Outline: as §1

[4] = compound: CC[C@H](CO)Nc1nc(NCc2ccccc2)c2ncn(C(C)C)c2n1 [Seliciclib] + C[C@@H](Oc1cc(-c2cnn(C3CCNCC3)c2)cnc1N)c1c(Cl)ccc(F)c1Cl [Crizotinib] (partner 1 µM)
Outline: as §1

| Cell Line | relative viability ([1]; first compound 0.08 µM) | relative viability ([1]; first compound 0.253 µM) | relative viability ([1]; first compound 0.8 µM) | relative viability ([1]; first compound 2.53 µM) | relative viability ([1]; first compound 8 µM) | relative viability ([2]; first compound 0.08 µM) | relative viability ([2]; first compound 0.253 µM) | relative viability ([2]; first compound 0.8 µM) | relative viability ([2]; first compound 2.53 µM) | relative viability ([2]; first compound 8 µM) | relative viability ([3]; first compound 0.08 µM) | relative viability ([3]; first compound 0.253 µM) | relative viability ([3]; first compound 0.8 µM) | relative viability ([3]; first compound 8 µM) | relative viability ([4]; first compound 0.08 µM) | relative viability ([4]; first compound 0.253 µM) | relative viability ([4]; first compound 0.8 µM) | relative viability ([4]; first compound 8 µM) | relative viability ([3]; first compound 2.53 µM) | relative viability ([4]; first compound 2.53 µM) |
| --- | --- | --- | --- | --- | --- | --- | --- | --- | --- | --- | --- | --- | --- | --- | --- | --- | --- | --- | --- | --- |
| NCI-H650 | 0.693 | 0.782 | 0.704 | 0.464 | 0.584 | 0.539 | 0.497 | 0.651 | 0.313 | 0.495 | 0.833 | 0.925 | 1.17 | 0.897 | 0.65 | 0.713 | 0.84 | 0.543 | – | – |
| NCI-H647 | 0.278 | – | 0.262 | 0.348 | 0.303 | 0.616 | – | 0.652 | 0.552 | 0.534 | 1.22 | 1.12 | 1.11 | 0.718 | 1.07 | 1.01 | 1.04 | 0.852 | 1.19 | 1.29 |
| 201T | 0.948 | 0.959 | 0.893 | 0.964 | 0.745 | 0.815 | 0.708 | 0.857 | 0.467 | 0.688 | 1.04 | 1.07 | 0.994 | 0.982 | 1.04 | 0.996 | 1.04 | 0.95 | 1.05 | 1.02 |
| NCI-H838 | 0.252 | 0.257 | 0.304 | 0.25 | 0.253 | 0.425 | 0.44 | 0.325 | 0.247 | 0.292 | 0.933 | 0.864 | 0.943 | 0.966 | 0.806 | 0.766 | 0.841 | 0.673 | 1.07 | 0.936 |
| SW 1573 | 0.248 | 0.162 | 0.195 | 0.136 | 0.175 | 0.606 | 0.491 | 0.728 | 0.598 | 0.466 | 0.768 | 0.792 | 0.904 | 0.668 | 0.823 | 0.759 | 0.77 | 0.642 | 0.743 | 0.847 |
| PC-14 | 0.551 | 0.608 | 0.55 | 0.574 | 0.445 | 0.844 | 0.736 | 0.749 | 0.494 | 0.709 | 0.922 | 0.921 | 0.936 | 0.845 | 0.865 | 0.846 | 0.78 | 0.759 | 0.994 | 0.991 |
| LK-2 | 0.203 | 0.154 | 0.17 | 0.175 | 0.168 | 0.225 | 0.203 | 0.191 | 0.175 | 0.194 | 0.74 | 0.462 | 0.523 | 0.274 | 0.246 | 0.227 | 0.205 | 0.249 | 0.676 | 0.227 |
| COR-L23 | 0.224 | 0.234 | 0.187 | 0.164 | 0.154 | 0.808 | 0.604 | 0.7 | 0.671 | 0.627 | 0.873 | 0.84 | 0.922 | 0.684 | 0.61 | 0.806 | 0.693 | 0.519 | 1.11 | 0.671 |
| HCC-78 | 0.367 | 0.405 | 0.411 | 0.39 | 0.381 | 0.411 | 0.426 | 0.358 | 0.34 | 0.326 | 0.478 | 0.558 | 0.49 | 0.404 | 0.364 | 0.333 | 0.327 | 0.274 | 0.596 | 0.262 |
| NCI-H2405 | 0.753 | 0.797 | 0.762 | 0.602 | 0.601 | 0.616 | 0.669 | 0.689 | 0.291 | 0.555 | 0.978 | 0.962 | 0.863 | 0.793 | 0.755 | 0.841 | 0.807 | 0.794 | 0.941 | 0.877 |
| SK-LU-1 | 0.33 | 0.383 | 0.354 | 0.314 | 0.326 | 0.38 | 0.378 | 0.433 | 0.239 | 0.233 | 0.973 | 0.868 | 1.32 | 0.687 | 0.874 | 0.987 | 1.03 | 0.688 | 1.09 | 0.892 |
| EMC-BAC-2 | 0.257 | 0.242 | 0.318 | 0.274 | 0.257 | 0.401 | 0.317 | 0.43 | 0.253 | 0.347 | 0.835 | 0.805 | 0.775 | 0.754 | 0.735 | 0.744 | 0.824 | 0.534 | 0.894 | 0.728 |
| NCI-H596 | 0.862 | – | 0.849 | 1.03 | 0.865 | 0.784 | – | 0.607 | 0.812 | 0.657 | 1.09 | 0.636 | 0.996 | 1.1 | 0.959 | 0.759 | 0.981 | 0.988 | 1.12 | 1.05 |
| LCLC-97TM1 | 0.355 | 0.248 | 0.243 | 0.168 | 0.153 | 0.442 | 0.424 | 0.714 | 0.108 | 0.182 | 0.162 | 0.181 | 0.205 | 0.18 | 0.295 | 0.366 | 0.463 | 0.252 | – | – |
| H3255 | 0.588 | 0.645 | 0.585 | 0.507 | 0.604 | 0.596 | 0.642 | 0.626 | 0.532 | 0.579 | 0.872 | 0.926 | 1.02 | 0.891 | 0.787 | 0.892 | 1.01 | 0.727 | 1.16 | 0.965 |
| LXF-289 | 0.189 | 0.192 | 0.203 | 0.18 | 0.158 | 0.781 | 0.667 | 0.769 | 0.421 | 0.762 | 0.945 | 1.03 | 0.908 | 0.914 | 0.82 | 0.871 | 0.779 | 0.638 | 0.947 | 0.835 |
| UMC-11 | 0.202 | 0.202 | 0.214 | 0.194 | 0.202 | 0.537 | 0.503 | 0.48 | 0.153 | 0.422 | 1.02 | 0.872 | 1.01 | 0.851 | 0.654 | 0.558 | 0.672 | 0.404 | 1.04 | 0.712 |
| LC-2-ad | 0.55 | 0.479 | 0.429 | 0.426 | 0.438 | 0.902 | 0.901 | 0.827 | 0.453 | 0.799 | 0.884 | 0.94 | 0.756 | 0.607 | 0.442 | 0.456 | 0.479 | 0.404 | 0.827 | 0.46 |
| A-427 | 0.245 | 0.202 | 0.187 | 0.2 | 0.192 | 0.419 | 0.615 | 0.442 | 0.331 | 0.401 | 1.08 | 1.11 | 1.2 | 1.13 | 0.833 | 0.924 | 0.795 | 0.785 | 1.15 | 0.905 |
| NCI-H322M | 0.49 | 0.497 | 0.474 | 0.462 | 0.435 | 0.561 | 0.482 | 0.516 | 0.348 | 0.43 | 1.02 | 0.932 | 1.05 | 0.803 | 0.85 | 1.06 | 0.839 | 0.554 | 0.977 | 1.06 |
| HCC-366 | 0.135 | 0.0662 | 0.155 | 0.387 | 0.0931 | 0.978 | 0.43 | 0.825 | 0.513 | 0.625 | 0.538 | 0.448 | 0.557 | 0.36 | 0.477 | 0.418 | 0.497 | 0.354 | 0.836 | 0.946 |
| NCI-H1975 | 0.777 | 0.769 | 0.704 | 0.681 | 0.296 | 0.845 | 0.545 | 0.839 | 0.525 | 0.624 | 1.03 | 0.865 | 0.975 | 0.6 | 0.966 | 0.984 | 0.917 | 0.662 | 0.819 | 0.924 |
| NCI-H1437 | 0.425 | 0.431 | 0.405 | 0.4 | 0.352 | 0.844 | 0.877 | 0.99 | 0.52 | 0.787 | 1.02 | 1.06 | 0.974 | 0.786 | 0.861 | 0.916 | 0.951 | 0.834 | 1.16 | 0.97 |
| NCI-H2009 | 0.767 | 0.742 | 0.809 | 0.69 | 0.635 | 0.704 | 0.778 | 0.739 | 0.407 | 0.495 | 1.24 | 1.16 | 1.09 | 1.19 | 1.04 | 0.963 | 1.06 | 0.989 | 1.19 | 0.987 |
| NCI-H1651 | 0.664 | 0.623 | 0.652 | 0.778 | 0.542 | 0.654 | 0.815 | 0.651 | 0.542 | 0.543 | 0.878 | 0.879 | 0.91 | 0.839 | 0.873 | 0.861 | 0.831 | 0.82 | 0.924 | 0.814 |
| LCLC-103H | 0.443 | 0.583 | 0.532 | 0.434 | 0.399 | 0.452 | 0.47 | 0.456 | 0.319 | 0.487 | 1.17 | 0.973 | 1.02 | 0.849 | 1.02 | 1.04 | 0.955 | 0.919 | 1.02 | 0.975 |
| NCI-H1666 | 0.684 | 0.696 | 0.623 | 0.561 | 0.428 | 0.817 | 0.899 | 0.939 | 0.622 | 0.734 | 0.769 | 0.862 | 0.662 | 0.514 | 1.08 | 0.953 | 1.05 | 0.46 | 0.875 | 0.852 |
